Test results as given in ChEMBL document CHEMBL1158861, “Zanhasaponins A and B, antiphospholipase A2 saponins from an antiinflammatory extract of Zanha africana root bark” (J Nat Prod, 1997).

Legend:
Mus musculus [1] = experiment: Antiinflammatory activity against TPA-induced ear edema in Swiss mouse assessed as reduction in ear thickness at 0.05 mg/ear after 10 days; assay type: functional; parameters: scale not given: the % may be the effect or the level left
Mus musculus [2] = species: Mus musculus; experiment: Effect on oxazolone-induced delayed type hypersensitivity in Swiss mouse assessed as reduction in ear thickness at 0.05 mg/ear after 24 hrs; assay type: functional; parameters: scale not given: the % may be the effect or the level left
Mus musculus [3] = species: Mus musculus; experiment: Effect on oxazolone-induced delayed type hypersensitivity in Swiss mouse assessed as reduction in ear thickness at 0.05 mg/ear after 48 hrs; assay type: functional; parameters: scale not given: the % may be the effect or the level left
Mus musculus [4] = species: Mus musculus; experiment: Effect on oxazolone-induced delayed type hypersensitivity in Swiss mouse assessed as reduction in ear thickness at 0.05 mg/ear after 72 hrs; assay type: functional; parameters: scale not given: the % may be the effect or the level left
Mus musculus [5] = species: Mus musculus; experiment: Effect on oxazolone-induced delayed type hypersensitivity in Swiss mouse assessed as reduction in ear thickness at 0.05 mg/ear after 96 hrs; assay type: functional; parameters: scale not given: the % may be the effect or the level left
Mus musculus [6] = species: Mus musculus; experiment: Effect on oxazolone-induced delayed type hypersensitivity in Swiss mouse assessed as reduction in ear thickness at 0.05 mg/ear after 102 hrs; assay type: functional; parameters: scale not given: the % may be the effect or the level left
[7] = molecular target: Acidic phospholipase A2 2 (Naja naja) (UniProt P15445); experiment: Inhibition of Naja Naja PLA2 at […]
[8] = molecular target: Acidic phospholipase A2 2 (Naja naja, UniProt P15445); experiment: Inhibition of Naja Naja PLA2
[9] = molecular target: Acidic phospholipase A2 2 (Naja naja) (UniProt P15445); conditions: 1.3 nM
Description: Inhibition of Naja Naja PLA2 at 1.3 nM

Mus musculus [10] = experiment: Antiinflammatory activity against Arachidonic acid-induced ear edema in Swiss mouse assessed as reduction in ear thickness at 2 mg/ear; assay type: functional; parameters: scale not given: the % may be the effect or the level left

Chain of Acidic phospholipase A2 2 (P15445 whole entry): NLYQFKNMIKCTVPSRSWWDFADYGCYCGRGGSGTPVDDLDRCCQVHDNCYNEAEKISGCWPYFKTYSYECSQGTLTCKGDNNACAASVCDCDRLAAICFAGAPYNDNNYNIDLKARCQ
Chain of Acidic phospholipase A2 2 (Naja naja) (P15445 whole entry): as above

## C[C@@H]1C[C@H]2[C@@H]3CCC4=CC(=O)C=C[C@]4(C)[C@@]3(F)[C@@H](O)C[C@]2(C)[C@@]1(O)C(=O)CO [DEXAMETHASONE]
Mus musculus [1]
  Activity: 81%
Mus musculus [2]
  Activity: 76%
Mus musculus [3]
  Activity: 89%
Mus musculus [4]
  Activity: 93%
Mus musculus [5]
  Activity: 81%
Mus musculus [6]
  Activity: 84%

## C[C@@H]1O[C@@H](O[C@H]2[C@H](OC(=O)[C@]34CCC(C)(C)C[C@H]3C3=CC[C@@H]5[C@@]6(C)C[C@H](O)[C@H](O[C@@H]7O[C@H](C(=O)O)[C@@H](O)[C@H](O)[C@H]7O)[C@@](C)(C(=O)O)[C@@H]6CC[C@@]5(C)[C@]3(C)C[C@H]4O)O[C@@H](C)[C@H](O)[C@H]2O)[C@H](O[C@@H]2OC[C@@H](O)[C@H](O[C@@H]3OC[C@@H](O)[C@H](O)[C@H]3O)[C@H]2O)[C@H](O)[C@H]1O
[7]
  inhibition: 30%

## C[C@@H]1O[C@@H](O[C@H]2[C@H](OC(=O)[C@]34CCC(C)(C)C[C@H]3C3=CC[C@@H]5[C@@]6(C)C[C@H](O)[C@H](O[C@@H]7O[C@H](C(=O)O)[C@@H](O)[C@H](O)[C@H]7O)[C@@](C)(C(=O)O)[C@@H]6CC[C@@]5(C)[C@]3(C)C[C@H]4O)O[C@@H](C)[C@H](O)[C@H]2O)[C@H](O[C@@H]2OC[C@@H](O)[C@H](O)[C@H]2O)[C@H](O)[C@H]1O [ZANHASAPONIN B]
[8]
  IC50: 440 µM

## C[C@@H]1O[C@@H](O[C@H]2[C@H](OC(=O)[C@]34CCC(C)(C)C[C@H]3C3=CC[C@@H]5[C@@]6(C)C[C@H](O)[C@H](O[C@@H]7O[C@H](C(=O)O)[C@@H](O)[C@H](O)[C@H]7O)[C@@](C)(C(=O)O)[C@@H]6CC[C@@]5(C)[C@]3(C)C[C@H]4O)O[C@@H](C)[C@H](O)[C@H]2O)[C@H](O)[C@H](O)[C@H]1O [ZANHASAPONIN A]
[8]
  IC50: 470 µM

## CO[C@H]1[C@H](O)[C@@H](O)[C@@H](O)[C@H](O)[C@@H]1O [METHYLINOSITOL]
[8]
  IC50: 1920 µM

## CO[C@H]1[C@H](O)[C@@H](O)[C@H](O)[C@H](O)[C@H]1O
[9]
  inhibition: 45%

## CC(Cc1ccc(O)c(O)c1)C(C)Cc1ccc(O)c(O)c1 (configuration not stated) [NORDIHYDROGUAIARETIC ACID]
Mus musculus [10]
  Activity: 50%
